Organism: Rattus norvegicus
Assay: DrugMatrix - Regimen: Daily Repeat
Type: toxicity, organism-based, Sprague-Dawley
Design: regimen Daily Repeat, gender Male, age 6-8 weeks
Conditions: in vivo, po, 72 h, route oral GAVAGE, time 3 day, vehicle .5 % CMC; for ABSOLUTE BASOPHIL / ABSOLUTE EOSINOPHIL / ABSOLUTE LYMPHOCYTE / ABSOLUTE MONOCYTE / ABSOLUTE SEGMENTED NEUTROPHIL / BASOPHIL / EOSINOPHIL / ERYTHROCYTE COUNT / HEMATOCRIT / HEMOGLOBIN / LEUKOCYTE COUNT / LYMPHOCYTE / MEAN CORPUSCULAR HEMOGLOBIN / MEAN CORPUSCULAR HEMOGLOBIN CONCENTRATION / MEAN CORPUSCULAR VOLUME / MONOCYTE / NEUTROPHIL / NUCLEATED RED BLOOD CELLS / PLATELET COUNT: tissue Blood; for ALANINE AMINOTRANSFERASE / ALBUMIN / ALKALINE PHOSPHATASE / ASPARTATE AMINOTRANSFERASE / BLOOD UREA NITROGEN / CARBON DIOXIDE / CHLORIDE / CHOLESTEROL / CREATINE PHOSPHOKINASE / CREATININE / GLUCOSE / LACTATE DEHYDROGENASE / LIPASE / PHOSPHORUS / POTASSIUM / SODIUM / TOTAL BILIRUBIN / TOTAL PROTEIN / URIC ACID: tissue Plasma

C=C1CC[C@H](O)C/C1=C/C=C1\CCC[C@]2(C)[C@@H]([C@H](C)/C=C/[C@H](C)C(C)C)CC[C@@H]12 [ERGOCALCIFEROL]
ABSOLUTE BASOPHIL (0 mg/kg, dose level Control): 0 CELLS/uL
ABSOLUTE EOSINOPHIL (0 mg/kg, dose level Control): 8.83 CELLS/uL
ABSOLUTE LYMPHOCYTE (0 mg/kg, dose level Control): 7222.33 CELLS/uL
ABSOLUTE MONOCYTE (0 mg/kg, dose level Control): 0 CELLS/uL
ABSOLUTE SEGMENTED NEUTROPHIL (0 mg/kg, dose level Control): 752.17 CELLS/uL
BASOPHIL (0 mg/kg, dose level Control): 0%
EOSINOPHIL (0 mg/kg, dose level Control): 0.17%
ERYTHROCYTE COUNT (0 mg/kg, dose level Control): 5.22 x10E6/uL
HEMATOCRIT (0 mg/kg, dose level Control): 32.6%
HEMOGLOBIN (0 mg/kg, dose level Control): 12.43 G/DL
LEUKOCYTE COUNT (0 mg/kg, dose level Control): 7.98 x10E3/uL
LYMPHOCYTE (0 mg/kg, dose level Control): 91.17%
MEAN CORPUSCULAR HEMOGLOBIN (0 mg/kg, dose level Control): 23.87 pg
MEAN CORPUSCULAR HEMOGLOBIN CONCENTRATION (0 mg/kg, dose level Control): 38.18 G/DL
MEAN CORPUSCULAR VOLUME (0 mg/kg, dose level Control): 62.48 fL
MONOCYTE (0 mg/kg, dose level Control): 0%
NEUTROPHIL (0 mg/kg, dose level Control): 8.67%
NUCLEATED RED BLOOD CELLS (0 mg/kg, dose level Control): 0 /100WBC
PLATELET COUNT (0 mg/kg, dose level Control): 1082.33 x10E3/uL
ALANINE AMINOTRANSFERASE (0 mg/kg, dose level Control): 42.17 u/L
ALBUMIN (0 mg/kg, dose level Control): 4.33 G/DL
ALKALINE PHOSPHATASE (0 mg/kg, dose level Control): 451.17 u/L
ASPARTATE AMINOTRANSFERASE (0 mg/kg, dose level Control): 76.17 u/L
BLOOD UREA NITROGEN (0 mg/kg, dose level Control): 13.33 mg/dL
CARBON DIOXIDE (0 mg/kg, dose level Control): 31.67 mmol/L
CHLORIDE (0 mg/kg, dose level Control): 96.5 MEQ/L
CHOLESTEROL (0 mg/kg, dose level Control): 78 mg/dL
CREATINE PHOSPHOKINASE (0 mg/kg, dose level Control): 216.5 u/L
CREATININE (0 mg/kg, dose level Control): 0.22 mg/dL
GLUCOSE (0 mg/kg, dose level Control): 137 mg/dL
LACTATE DEHYDROGENASE (0 mg/kg, dose level Control): 138.5 u/L
LIPASE (0 mg/kg, dose level Control): 8.67 u/L
PHOSPHORUS (0 mg/kg, dose level Control): 12.68 mg/dL
POTASSIUM (0 mg/kg, dose level Control): 6.23 MEQ/L
SODIUM (0 mg/kg, dose level Control): 143.47 MEQ/L
TOTAL BILIRUBIN (0 mg/kg, dose level Control): 0.15 mg/dL
TOTAL PROTEIN (0 mg/kg, dose level Control): 6.33 G/DL
URIC ACID (0 mg/kg, dose level Control): 1.1 mg/dL
ABSOLUTE BASOPHIL (1 mg/kg, dose level Low): 0 CELLS/uL
ABSOLUTE EOSINOPHIL (1 mg/kg, dose level Low): 30.67 CELLS/uL
ABSOLUTE LYMPHOCYTE (1 mg/kg, dose level Low): 8277.33 CELLS/uL
ABSOLUTE MONOCYTE (1 mg/kg, dose level Low): 0 CELLS/uL
ABSOLUTE SEGMENTED NEUTROPHIL (1 mg/kg, dose level Low): 658.67 CELLS/uL
BASOPHIL (1 mg/kg, dose level Low): 0%
EOSINOPHIL (1 mg/kg, dose level Low): 0.33%
ERYTHROCYTE COUNT (1 mg/kg, dose level Low): 5.18 x10E6/uL
HEMATOCRIT (1 mg/kg, dose level Low): 32.07%
HEMOGLOBIN (1 mg/kg, dose level Low): 12.3 G/DL
LEUKOCYTE COUNT (1 mg/kg, dose level Low): 8.97 x10E3/uL
LYMPHOCYTE (1 mg/kg, dose level Low): 92.33%
MEAN CORPUSCULAR HEMOGLOBIN (1 mg/kg, dose level Low): 23.7 pg
MEAN CORPUSCULAR HEMOGLOBIN CONCENTRATION (1 mg/kg, dose level Low): 38.37 G/DL
MEAN CORPUSCULAR VOLUME (1 mg/kg, dose level Low): 61.9 fL
MONOCYTE (1 mg/kg, dose level Low): 0%
NEUTROPHIL (1 mg/kg, dose level Low): 7.33%
NUCLEATED RED BLOOD CELLS (1 mg/kg, dose level Low): 0.33 /100WBC
PLATELET COUNT (1 mg/kg, dose level Low): 1019.33 x10E3/uL
ALANINE AMINOTRANSFERASE (1 mg/kg, dose level Low): 47 u/L
ALBUMIN (1 mg/kg, dose level Low): 4.37 G/DL
ALKALINE PHOSPHATASE (1 mg/kg, dose level Low): 374.33 u/L
ASPARTATE AMINOTRANSFERASE (1 mg/kg, dose level Low): 77.33 u/L
BLOOD UREA NITROGEN (1 mg/kg, dose level Low): 13.33 mg/dL
CARBON DIOXIDE (1 mg/kg, dose level Low): 31 mmol/L
CHLORIDE (1 mg/kg, dose level Low): 97.33 MEQ/L
CHOLESTEROL (1 mg/kg, dose level Low): 71.67 mg/dL
CREATINE PHOSPHOKINASE (1 mg/kg, dose level Low): 205 u/L
CREATININE (1 mg/kg, dose level Low): 0.28 mg/dL
GLUCOSE (1 mg/kg, dose level Low): 142 mg/dL
LACTATE DEHYDROGENASE (1 mg/kg, dose level Low): 139.33 u/L
LIPASE (1 mg/kg, dose level Low): 8 u/L
PHOSPHORUS (1 mg/kg, dose level Low): 13.07 mg/dL
POTASSIUM (1 mg/kg, dose level Low): 6.56 MEQ/L
SODIUM (1 mg/kg, dose level Low): 144.27 MEQ/L
TOTAL BILIRUBIN (1 mg/kg, dose level Low): 0.17 mg/dL
TOTAL PROTEIN (1 mg/kg, dose level Low): 6.43 G/DL
URIC ACID (1 mg/kg, dose level Low): 1.17 mg/dL
ABSOLUTE BASOPHIL (15 mg/kg, dose level High): 0 CELLS/uL
ABSOLUTE EOSINOPHIL (15 mg/kg, dose level High): 0 CELLS/uL
ABSOLUTE LYMPHOCYTE (15 mg/kg, dose level High): 7628 CELLS/uL
ABSOLUTE MONOCYTE (15 mg/kg, dose level High): 40.67 CELLS/uL
ABSOLUTE SEGMENTED NEUTROPHIL (15 mg/kg, dose level High): 1198 CELLS/uL
BASOPHIL (15 mg/kg, dose level High): 0%
EOSINOPHIL (15 mg/kg, dose level High): 0%
ERYTHROCYTE COUNT (15 mg/kg, dose level High): 5.54 x10E6/uL
HEMATOCRIT (15 mg/kg, dose level High): 34.3%
HEMOGLOBIN (15 mg/kg, dose level High): 13.2 G/DL
LEUKOCYTE COUNT (15 mg/kg, dose level High): 8.87 x10E3/uL
LYMPHOCYTE (15 mg/kg, dose level High): 86.67%
MEAN CORPUSCULAR HEMOGLOBIN (15 mg/kg, dose level High): 23.83 pg
MEAN CORPUSCULAR HEMOGLOBIN CONCENTRATION (15 mg/kg, dose level High): 38.5 G/DL
MEAN CORPUSCULAR VOLUME (15 mg/kg, dose level High): 61.97 fL
MONOCYTE (15 mg/kg, dose level High): 0.33%
NEUTROPHIL (15 mg/kg, dose level High): 13%
NUCLEATED RED BLOOD CELLS (15 mg/kg, dose level High): 0.33 /100WBC
PLATELET COUNT (15 mg/kg, dose level High): 1196.67 x10E3/uL
ALANINE AMINOTRANSFERASE (15 mg/kg, dose level High): 55 u/L
ALBUMIN (15 mg/kg, dose level High): 4.43 G/DL
ALKALINE PHOSPHATASE (15 mg/kg, dose level High): 367.33 u/L
ASPARTATE AMINOTRANSFERASE (15 mg/kg, dose level High): 84 u/L
BLOOD UREA NITROGEN (15 mg/kg, dose level High): 14.33 mg/dL
CARBON DIOXIDE (15 mg/kg, dose level High): 31.67 mmol/L
CHLORIDE (15 mg/kg, dose level High): 93.33 MEQ/L
CHOLESTEROL (15 mg/kg, dose level High): 74.33 mg/dL
CREATINE PHOSPHOKINASE (15 mg/kg, dose level High): 211.67 u/L
CREATININE (15 mg/kg, dose level High): 0.24 mg/dL
GLUCOSE (15 mg/kg, dose level High): 139.33 mg/dL
LACTATE DEHYDROGENASE (15 mg/kg, dose level High): 153 u/L
LIPASE (15 mg/kg, dose level High): 8.33 u/L
PHOSPHORUS (15 mg/kg, dose level High): 13.23 mg/dL
POTASSIUM (15 mg/kg, dose level High): 6.15 MEQ/L
SODIUM (15 mg/kg, dose level High): 144.7 MEQ/L
TOTAL BILIRUBIN (15 mg/kg, dose level High): 0.1 mg/dL
TOTAL PROTEIN (15 mg/kg, dose level High): 6.63 G/DL
URIC ACID (15 mg/kg, dose level High): 1.43 mg/dL

Reference: ChEMBL document CHEMBL3885881, “DrugMatrix”
